A word on the pIC50: it is the negative decadic logarithm of the IC50, by convention in mol/L. In general, pKi refers to −log10 of the Ki, conventionally taken in molar units.

Series [1] is described as follows: Cytotoxicity against HEK293 cells assessed as reduction in cell proliferation at 0.1 uM incubated for 72 hrs by SRB assay relative to control. It is filed as toxicity, cell-based. As to conditions: human, read-out: Activity. On the technique in general: In SRB staining, fixed cells bind dye roughly in proportion to their protein.
Series [2] in a line: Inhibition of -ureolysis in live Helicobacter pylori Tx30a (ATCC 51932) in presence of urea by absorbance based analysis. It is filed as functional.
Series [3] in a line: Cytotoxicity against HEK293 cells assessed as reduction in cell proliferation at 1 uM incubated for 72 hrs by SRB assay relative to control. The following applies: human, read-out: Activity. It is filed as toxicity, cell-based.
Series [4] in a line: Cytotoxicity against HEK293 cells assessed as reduction in cell proliferation at 31.4 uM incubated for 72 hrs by SRB assay relative to control. The series is classed as toxicity, cell-based. As to conditions: human, read-out: Activity.
Series [5] in a line: Cytotoxicity against HEK293 cells assessed as reduction in cell proliferation at 3.14 uM incubated for 72 hrs by SRB assay relative to control. It is filed as toxicity, cell-based. The following applies: human, read-out: Activity.
Series [6] can be described thus: Inhibition of Sporosarcina pasteurii CCM 2056 native urease using urea as substrate preincubated for 1 hr followed by substrate addition and measured for 1.5 hrs by colorimetric method.
Series [7] in a line: Cytotoxicity against mouse Balb/3T3-L1 cells assessed as reduction in cell proliferation at 31.4 uM incubated for 72 hrs by SRB assay relative to control. The following applies: read-out: Activity. The series is classed as toxicity, cell-based.
Series [8] in a line: Inhibition of Sporosarcina pasteurii CCM 2056 native urease using urea as substrate measured for 1.5 hrs by colorimetric method.
Series [9] has as its system HEK293. In words: Cytotoxicity against HEK293 cells assessed as reduction in cell proliferation at 10 uM incubated for 72 hrs by SRB assay relative to control. It is filed as toxicity, cell-based. The following applies: human, hek293, 72 h. On the set-up: scale not given: the % may be the effect or the level left.
Series [10] can be described thus: Cytotoxicity against mouse Balb/3T3-L1 cells assessed as reduction in cell proliferation at 10 uM incubated for 72 hrs by SRB assay relative to control. It is filed as toxicity, cell-based. The following applies: read-out: Activity.
A short description of series [11]: Cytotoxicity against HEK293 cells assessed as reduction in cell proliferation at 100 uM incubated for 72 hrs by SRB assay relative to control. The following applies: human, read-out: Activity. It is filed as toxicity, cell-based.
For series [12], the system named is HEK293. In words: Cytotoxicity against HEK293 cells assessed as reduction in cell proliferation at 0.31 uM incubated for 72 hrs by SRB assay relative to control. On the set-up: scale not given: the % may be the effect or the level left. The following applies: human, hek293, 72 h. It is filed as toxicity, cell-based.
A short description of series [13]: Cytotoxicity against mouse Balb/3T3-L1 cells assessed as reduction in cell proliferation at 100 uM incubated for 72 hrs by SRB assay relative to control. The series is classed as toxicity, cell-based. As to conditions: read-out: Activity.
The nature of series [14]: Cytotoxicity against mouse Balb/3T3-L1 cells assessed as reduction in cell proliferation at 0.31 uM incubated for 72 hrs by SRB assay relative to control. The series is classed as toxicity, cell-based. The following applies: read-out: Activity.
Series [15] in a line: Cytotoxicity against mouse Balb/3T3-L1 cells assessed as reduction in cell proliferation at 0.1 uM incubated for 72 hrs by SRB assay relative to control. On the set-up: scale not given: the % may be the effect or the level left. The following applies: balb/3t3-l1, 72 h. It is filed as toxicity, cell-based.
Series [16] in a line: Cytotoxicity against mouse Balb/3T3-L1 cells assessed as reduction in cell proliferation at 1 uM incubated for 72 hrs by SRB assay relative to control. The series is classed as toxicity, cell-based. As to conditions: read-out: Activity.
A short description of series [17]: Cytotoxicity against mouse Balb/3T3-L1 cells assessed as reduction in cell proliferation at 3.14 uM incubated for 72 hrs by SRB assay relative to control. The following applies: balb/3t3-l1, 72 h. It is filed as toxicity, cell-based. On the set-up: scale not given: the % may be the effect or the level left.
Series [18] deals with Sporosarcina pasteurii. As to the kind of experiment: Inhibition of Sporosarcina pasteurii CCM 2056 native urease using urea as substrate in presence of DTT measured for 1.5 hrs by colorimetric method.
The nature of series [19]: Stability of compound in methanol assessed as rate of hydrolysis measured after 3 days by NMR analysis. It is filed as physicochemical. The following applies: time 3 day, read-out: Activity.
The subject of series [20] is Sporosarcina pasteurii. As to the kind of experiment: Inhibition of Sporosarcina pasteurii CCM 2056 native urease using urea as substrate by colorimetric method. The following applies: TDE = time-dependent effect.
Series [21] has as its system Sporosarcina pasteurii. As to the kind of experiment: Competitive inhibition of Sporosarcina pasteurii CCM 2056 native urease using urea as substrate in presence of DTT measured for 1.5 hrs by colorimetric method.

pIC50, pKi: −log10 of the molar value. The source made the active and inactive calls. The rule behind the calls is not given here.

As to `O=P(O)(O)CCc1ccc(O)c(O)c1`, in series [1], the inhibition at 72 h, 0.1 µM came to 2.2%. For the same molecule, in [2], the pIC50 was 4.58. Also, the inhibition at 72 h, 1 µM was -0.9% in [3] and 15% in series [16]. The inhibition at 72 h, 31.4 µM is 15.6% in series [4] and 18.3% in [7]. For the same molecule, the inhibition at 72 h, 3.14 µM in [5] amounted to 0.1%. For the same molecule, the negative-log Ki (pKi) is 5.04 in series [6] and 4.75 in series [8]. Also, the Activity is 8.4% in the series on HEK293 [9], -3.4% in the series with HEK293 [12], 0.4% in series [15] and 10.6% in series [17]. Besides, in series [10], the inhibition at 72 h, 10 µM was 12.7%. Also, the results for the inhibition at 72 h, 100 µM in series [11] and in series [13] were 15.7% and 17.8%, respectively. The inhibition at 72 h, 0.31 µM in [14] is 5.9%. Besides, in the series on Sporosarcina pasteurii [18], the inhibition entry is “Active”.
In the case of `COC(=O)CCP(=O)(O)CC(C(=O)OC)c1ccc(O)c(O)c1` (stereo not given), the pIC50 in series [2] is 3.39. The pKi in series [6] is 3.64; in series [8], 3.53. In addition, the degraded at 72 h in [19] is less than 5%. The inhibition entry in the series on Sporosarcina pasteurii [18] is “Active”.
Consider `O=C(O)C(CP(=O)(O)CC(C(=O)O)c1ccc(O)c(O)c1)c1ccc(O)c(O)c1` (mixture of isomers), for which the pIC50 in series [2] is 4.88. The pKi was 5.17 in [6] and 4.80 in series [8]. Moreover, the inhibition result in the series on Sporosarcina pasteurii [18] is “inactive”.
For `COC(=O)C(CP(=O)(O)CC(C(=O)OC)c1ccc(O)c(O)c1)c1ccc(O)c(O)c1` (mixture of isomers), the pIC50 in series [2] is 3.97. For the same molecule, the pKi in series [6] is 5.12; in series [8], 3.65. In addition, the inhibition entry with Sporosarcina pasteurii [18] was “inactive”.
For `O=C(O)CCP(=O)(O)CC(C(=O)O)c1ccc(O)c(O)c1` (racemic), the inhibition at 72 h, 0.1 µM in series [1] stood at 13.5%. Moreover, the pIC50 in [2] is 5.03. Also, the inhibition at 72 h, 1 µM in series [3] is 8.1%; in series [16], 13.4%. Besides, the inhibition at 72 h, 31.4 µM came to 10.4% in series [4] and 25.8% in series [7]. Further, in series [5], the inhibition at 72 h, 3.14 µM worked out at 10.1%. Further, the pKi is 5.21 in [6] and 3.53 in series [8]. Besides, the Activity in the series with HEK293 [9] is listed as 16.3%; in the series with HEK293 [12] it was 8.5%; in series [15], 8%; in series [17] it was 17.5%. The inhibition at 72 h, 10 µM in [10] is 17.4%. The values for the inhibition at 72 h, 100 µM in [11] and in series [13] were 7.7% and 33.2%, respectively. Also, the inhibition at 72 h, 0.31 µM in series [14] was determined as 4.9%. Further, the inhibition entry in the series on Sporosarcina pasteurii [18] was “inactive”.
Take `O=C(O)C(C[PH](=O)O)c1ccc(O)c(O)c1` (racemic): the pIC50 in [2] is 4.98. In addition, the figures for the pKi in series [6] and in series [8] were 4.23 and 4.10, respectively. Moreover, the inhibition result with Sporosarcina pasteurii [20] was “Tde”. Further, the inhibition entry in the series on Sporosarcina pasteurii [18] is “inactive”.
On to `O=C(O)C(CP(=O)(O)O)c1cc(O)c(O)cc1Br` (racemic), for which the inhibition result in the series with Sporosarcina pasteurii [21] and in the series on Sporosarcina pasteurii [18] was “Active” throughout. The pIC50 in series [2] is 4.30. Moreover, the pKi in [6] is 4.46; in series [8], 4.38.
For `O=C(O)C(CP(=O)(O)O)c1ccc(O)c(O)c1` (racemic), the inhibition at 72 h, 0.1 µM in series [1] stood at 1.4%. For the same molecule, the pIC50 in series [2] was 6.12. Besides, the values for the inhibition at 72 h, 1 µM in series [3] and in [16] were -0.8% and 18.6%, respectively. For the same molecule, the inhibition at 72 h, 31.4 µM in [4] is -3%; in [7], 24.9%. The inhibition at 72 h, 3.14 µM in series [5] was -0.2%. The pKi was 5.63 in [6] and 3.40 in series [8]. The Activity in the series on HEK293 [9] is recorded as -3%; with HEK293 [12], -1.6%; in [15], 6.7%; in series [17], 20.1%. For the same molecule, in series [10], the inhibition at 72 h, 10 µM came out at 22.1%. Moreover, in the series with Sporosarcina pasteurii [20], the inhibition result is “Tde”. The inhibition at 72 h, 100 µM amounted to 7.8% in series [11] and 34.9% in [13]. In addition, the inhibition at 72 h, 0.31 µM in series [14] was 15.6%. For the same molecule, the inhibition entry with Sporosarcina pasteurii [18] was “inactive”.
Consider `COC(=O)C(CP(=O)(O)O)c1ccc(O)c(O)c1` (racemic), for which the pIC50 in series [2] was 4.50. For the same molecule, the pKi in [6] was 4.11; in [8], 3.97. Besides, the degraded at 72 h in series [19] is less than 5%. In the series on Sporosarcina pasteurii [18], the inhibition result was “Active”.
On to `CC(=O)NO` [ACETOHYDROXAMIC ACID], for which the pIC50 in series [2] is 3.81. For the same molecule, the pKi in series [6] was 5.48.

Values taken from ChEMBL document CHEMBL5335783, “Inhibitory activity of catecholic phosphonic and phosphinic acids against Helicobacter pylori ureolysis” (Eur J Med Chem, 2023).
